Results published in ChEMBL document CHEMBL1649500, “GS-9191 is a novel topical prodrug of the nucleotide analog 9-(2-phosphonylmethoxyethyl)guanine with antiproliferative activity and possible utility in the treatment of human papillomavirus lesions” (Antimicrob Agents Chemother, 2009).
Active and inactive are the calls of the source. No cut-off for these calls is given here.

Legend:
SiHa [1] = experiment: Inhibition of DNA synthesis in HPV-transformed human SiHa cells assessed as decrease in BrdU incorporation after 24 to 27 hrs by ELISA; format: functional, cell-based
[2] = Antiproliferative activity against PHF after 7 days by SRB assay; parameters: species or system Homo sapiens
[3] = Cell cycle arrest in human PHK cells assessed as accumulation at S phase at 10 times EC50 after 48 hrs by flow cytometry; format: cell-based
SCC-9 = experiment: Antiproliferative activity against HPV-non-transformed human SCC9 cells after 7 days by SRB assay; format: functional, cell-based; conditions: SCC-9, 168 h
SiHa [4] = experiment: Induction of apoptosis in HPV-transformed human SiHa cells assessed as apoptotic cells at 270 nM after 3 days by propidium iodide staining-based flow cytometry; format: functional
Ca-Ski [5] = experiment: Antiproliferative activity against HPV-transformed human CaSki cells after 7 days by SRB assay; format: functional, cell-based; conditions: 168 h
SiHa [6] = experiment: Induction of apoptosis in HPV-transformed human SiHa cells assessed as apoptotic cells at 2.7 nM after 7 days by propidium iodide staining-based flow cytometry; format: functional
[7] = Cell cycle arrest in human PHK cells assessed as accumulation at G0/G1 phase at 10 times EC50 after 48 hrs by flow cytometry; format: cell-based
SiHa [8] = experiment: Induction of apoptosis in HPV-transformed human SiHa cells assessed as apoptotic cells at 2.7 nM after 3 days by propidium iodide staining-based flow cytometry; format: functional
[9] = Drug metabolism in human CK cells assessed as PMEG AUC (0 to 32 hrs) at 1 uM by HPLC analysis; format: ADME, cell-based; parameters: time < 32 hr, dose 1 uM
[10] = Drug metabolism in human CaSki cells assessed as PMEG AUC (0 to 32 hrs) at 1 uM by HPLC analysis; format: ADME, cell-based; parameters: time < 32 hr, dose 1 uM; conditions: ca-ski
[11] = Cell cycle arrest in human PHK cells assessed as accumulation at G2/M phase at 10 times EC50 after 48 hrs by flow cytometry; format: cell-based
SiHa [12] = experiment: Induction of apoptosis in HPV-transformed human SiHa cells assessed as viable cells at 270 nM after 3 days by propidium iodide staining-based flow cytometry; format: functional; conditions: 72 h, read-out: Activity
ME-180 = experiment: Antiproliferative activity against HPV-transformed human ME180 cells after 7 days by SRB assay; format: functional, cell-based; conditions: ME-180, 168 h
[13] = test system: Cottontail rabbit papillomavirus; experiment: Antiviral activity against Cottontail rabbit papillomavirus infected in New Zealand White rabbit assessed as decrease in pailloma size at 0.1% administered topically measured on day 48; format: functional, Kappapapillomavirus 2
SiHa [14] = experiment: Cell cycle arrest in HPV-transformed human SiHa cells assessed as accumulation at G2/M phase at 10 times EC50 after 48 hrs by flow cytometry; format: functional
HT-3 = experiment: Antiproliferative activity against HPV-non-transformed human HT3 cells after 7 days by SRB assay; format: functional, cell-based; conditions: HT-3, 168 h
SiHa [15] = experiment: Cell cycle arrest in HPV-transformed human SiHa cells assessed as accumulation at S phase at 10 times EC50 after 48 hrs by flow cytometry; format: functional
[16] = test system: Cottontail rabbit papillomavirus; experiment: Antiviral activity against Cottontail rabbit papillomavirus infected in New Zealand White rabbit assessed as decrease in pailloma size at 0.3% administered topically measured on day 48; format: functional, Kappapapillomavirus 2
SiHa [17] = experiment: Inhibition of DNA synthesis in HPV-transformed human SiHa cells assessed as decrease in BrdU incorporation after 72 to 75 hrs by ELISA; format: functional, cell-based
[18] = Antiproliferative activity against human lung fibroblast after 7 days by SRB assay; conditions: 168 h
Ca-Ski [19] = experiment: Induction of apoptosis in HPV-transformed human CaSki cells at 2.7 to 270 nM after 3 to 7 days by propidium iodide staining-based flow cytometry; format: functional, cell-based
SiHa [20] = experiment: Inhibition of DNA synthesis in HPV-transformed human SiHa cells assessed as decrease in BrdU incorporation after 3 hrs by ELISA; format: functional, cell-based
[21] = test system: Cottontail rabbit papillomavirus; experiment: Antiviral activity against Cottontail rabbit papillomavirus infected in New Zealand White rabbit assessed as effect on viral growth rate at 0.5% administered topically measured on day 48; format: functional; conditions: Kappapapillomavirus 2
SiHa [22] = experiment: Induction of apoptosis in HPV-transformed human SiHa cells assessed as viable cells at 27 nM after 7 days by propidium iodide staining-based flow cytometry; format: functional; conditions: 168 h, read-out: Activity
SiHa [23] = experiment: Inhibition of DNA synthesis in HPV-transformed human SiHa cells assessed as decrease in BrdU incorporation after 6 to 9 hrs by ELISA; format: functional, cell-based
SiHa [24] = experiment: Induction of apoptosis in HPV-transformed human SiHa cells assessed as viable cells at 27 nM after 3 days by propidium iodide staining-based flow cytometry; format: functional; conditions: 72 h, read-out: Activity
HeLa [25] = experiment: Induction of apoptosis in HPV-transformed human HeLa cells at 2.7 to 270 nM after 3 to 7 days by propidium iodide staining-based flow cytometry; format: functional, cell-based
SiHa [26] = experiment: Induction of apoptosis in HPV-transformed human SiHa cells assessed as viable cells at 270 nM after 7 days by propidium iodide staining-based flow cytometry; format: functional; conditions: 168 h, read-out: Activity
Ca-Ski [27] = experiment: Cell cycle arrest in HPV-transformed human CaSki cells assessed as accumulation at S phase at 10 times EC50 after 48 hrs by flow cytometry; format: functional, cell-based
[28] = test system: Cottontail rabbit papillomavirus; experiment: Antiviral activity against Cottontail rabbit papillomavirus infected in New Zealand White rabbit assessed as decrease in pailloma size at 0.01% administered topically measured on day 48; format: functional, Kappapapillomavirus 2
[29] = Antiproliferative activity against HPV-transformed human C4I cells after 7 days by SRB assay; format: functional, cell-based; conditions: C-4I, 168 h
SiHa [30] = experiment: Induction of apoptosis in HPV-transformed human SiHa cells assessed as apoptotic cells at 27 nM after 7 days by propidium iodide staining-based flow cytometry; format: functional
SiHa [31] = experiment: Drug metabolism in human SiHa cells assessed as PMEG AUC (0 to 32 hrs) at 1 uM by HPLC analysis; format: ADME, cell-based; parameters: dose 1 uM, time < 32 hr
SiHa [32] = experiment: Induction of apoptosis in HPV-transformed human SiHa cells assessed as apoptotic cells at 270 nM after 7 days by propidium iodide staining-based flow cytometry; format: functional
[33] = Antiproliferative activity against HPV-transformed human MS751 cells after 7 days by SRB assay; format: functional, cell-based; conditions: MS751, 168 h
SiHa [34] = experiment: Induction of apoptosis in HPV-transformed human SiHa cells assessed as apoptotic cells at 27 nM after 3 days by propidium iodide staining-based flow cytometry; format: functional
SiHa [35] = experiment: Inhibition of DNA synthesis in HPV-transformed human SiHa cells assessed as decrease in BrdU incorporation after 3 to 6 hrs by ELISA; format: functional, cell-based
SiHa [36] = experiment: Antiproliferative activity against HPV-transformed human SiHa cells after 7 days by SRB assay; format: functional, cell-based; conditions: 168 h
SiHa [37] = experiment: Inhibition of DNA synthesis in HPV-transformed human SiHa cells assessed as decrease in BrdU incorporation after 48 to 51 hrs by ELISA; format: functional, cell-based
[38] = Antiproliferative activity against human CK after 7 days by SRB assay
[39] = Antiproliferative activity against human PHK after 7 days by SRB assay
HeLa [40] = experiment: Antiproliferative activity against HPV-transformed human HeLa cells after 7 days by SRB assay; format: functional, cell-based; conditions: 168 h
[41] = Drug metabolism in human lung fibroblast assessed as cPrPMEDAP AUC (0 to 32 hrs) at 1 uM by HPLC analysis; format: ADME; parameters: dose 1 uM, time < 32 hr
SiHa [42] = experiment: Cell cycle arrest in HPV-transformed human SiHa cells assessed as accumulation at G0/G1 phase at 10 times EC50 after 48 hrs by flow cytometry; format: functional
SiHa [43] = experiment: Induction of apoptosis in HPV-transformed human SiHa cells assessed as viable cells at 2.7 nM after 3 days by propidium iodide staining-based flow cytometry; format: functional; conditions: 72 h, read-out: Activity
[44] = Antiproliferative activity against NHBE cells after 7 days by SRB assay; format: cell-based; conditions: Homo sapiens, 168 h
SiHa [45] = experiment: Induction of apoptosis in HPV-transformed human SiHa cells assessed as viable cells at 2.7 nM after 7 days by propidium iodide staining-based flow cytometry; format: functional; conditions: 168 h, read-out: Activity
A-431 = experiment: Cell cycle arrest in human A431 cells assessed as accumulation at S phase at 10 times EC50 after 48 hrs by flow cytometry; format: functional, cell-based
SCC-4 = experiment: Antiproliferative activity against HPV-non-transformed human SCC4 cells after 7 days by SRB assay; format: functional, cell-based; conditions: SCC-4, 168 h

## CC(C)COC(=O)[C@H](Cc1ccccc1)NP(=O)(COCCn1cnc2c(NC3CC3)nc(N)nc21)N[C@@H](Cc1ccccc1)C(=O)OCC(C)C [GS-9191]
SiHa [1]
  EC50: 1.8 nM
[2]
  EC50: 4.75 nM
[3]
  Activity: 36.1%
SCC-9
  EC50: 15.3 nM
SiHa [4]
  Activity: 19.6%
Ca-Ski [5]
  EC50: 2.03 nM
SiHa [6]
  Activity: 33.1%
[7]
  Activity: 56.4%
SiHa [8]
  Activity: 3.4%
[9]
  AUC: 33.4 µM·h
[10]
  AUC: 170 µM·h
[11]
  Activity: 7.5%
SiHa [12]
  viability at 0.27 µM: 79.6%
ME-180
  EC50: 1.83 nM
[13]
  inhibition (INH): 70%
SiHa [14]
  Activity: 7.3%
HT-3
  EC50: 5.42 nM
SiHa [15]
  Activity: 65.6%
[16]
  inhibition (INH): 70%
SiHa [17]
  EC50: 11.5 nM
[18]
  EC50: 7.44 nM
Ca-Ski [19]
  Activity: Active
SiHa [20]
  EC50: > 74 nM
[21]
  Activity: inactive
SiHa [22]
  viability at 0.027 µM: 17.4%
SiHa [23]
  EC50: 1 nM
SiHa [24]
  viability at 0.027 µM: 83.7%
HeLa [25]
  Activity: Active
SiHa [26]
  viability at 0.27 µM: 15.5%
Ca-Ski [27]
  Activity: Active
[28]
  inhibition (INH): 53%
[29]
  EC50: 0.44 nM
SiHa [30]
  Activity: 82.2%
SiHa [31]
  AUC: 1960 µM·h
SiHa [32]
  Activity: 84.1%
[33]
  EC50: 0.04 nM
SiHa [34]
  Activity: 14.6%
SiHa [35]
  EC50: 7.8 nM
SiHa [36]
  EC50: 0.03 nM
SiHa [37]
  EC50: 7.9 nM
[38]
  EC50: 2.1 nM
[39]
  EC50: 2.91 nM
HeLa [40]
  EC50: 0.71 nM
[41]
  AUC: 835 µM·h
SiHa [42]
  Activity: 27.1%
SiHa [43]
  viability at 0.0027 µM: 95.2%
[44]
  EC50: 0.98 nM
SiHa [45]
  viability at 0.0027 µM: 65.5%
A-431
  Activity: Active
SCC-4
  EC50: 5.03 nM
